PubChem BioAssay (NCI)
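Where inhibition never reached the appropriate level, the endpoint shown equals the highest concentration tested. Otherwise, values were interpolated linearly from a five-concentration, 48-hour dose response in 96-well plates. TGI: total growth inhibition.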

Tests used:
Assay in all cases: DTP human tumour cell line panel, 48 h
[1] = test system: IGROV1 ovarian
[2] = test system: SN12C renal
[3] = test system: NCI/ADR-RES ovarian
[4] = test system: RXF 393 renal
[5] = test system: SW-620 colon
[6] = test system: CAKI-1 renal
[7] = test system: MCF7 breast
[8] = test system: CCRF-CEM leukemia
[9] = test system: NCI-H522 lung
[10] = test system: DU-145 prostate
[11] = test system: BT-549 breast
[12] = test system: UACC-257 melanoma
[13] = test system: SK-OV-3 ovarian
[14] = test system: HCT-116 colon
[15] = test system: SK-MEL-2 melanoma
[16] = test system: OVCAR-4 ovarian
[17] = test system: SNB-19 CNS
[18] = test system: A549 NSCLC
[19] = test system: TK-10 renal
[20] = test system: UACC-62 melanoma
[21] = test system: M14 melanoma
[22] = test system: COLO 205 colon
[23] = test system: HCT-15 colon
[24] = test system: NCI-H226 lung
[25] = test system: HCC-2998 colon
[26] = test system: EKVX NSCLC
[27] = test system: NCI-H460 lung
[28] = test system: SF-295 CNS
[29] = test system: OVCAR-3 ovarian
[30] = test system: ACHN renal
[31] = test system: NCI-H23 lung
[32] = test system: MDA-N
[33] = test system: UO-31 renal
[34] = test system: HOP-62 NSCLC
[35] = test system: RPMI-8226 leukemia
[36] = test system: SNB-75 CNS
[37] = test system: SK-MEL-28 melanoma
[38] = test system: U251 CNS
[39] = test system: SF-268 CNS
[40] = test system: HT29 colon
[41] = test system: KM12 colon
[42] = test system: MALME-3M melanoma
[43] = test system: K-562 leukemia
[44] = test system: PC-3 prostate
[45] = test system: OVCAR-8 ovarian
[46] = test system: 786-0 renal
[47] = test system: OVCAR-5 ovarian
[48] = test system: SF-539 CNS
[49] = test system: MOLT-4 leukemia
[50] = test system: SK-MEL-5 melanoma
[51] = test system: HL-60(TB) leukemia
[52] = test system: SR leukemia
[53] = test system: HOP-92 NSCLC
[54] = test system: T-47D breast
[55] = test system: LOX IMVI melanoma
[56] = test system: HS 578T breast
[57] = test system: MDA-MB-435
[58] = test system: MDA-MB-231 breast
[59] = test system: A498 renal

N#C/C(=C\c1cc(F)cc(F)c1)c1ccccn1
TGI [1]: > 100 µM
TGI [2]: 62.9 µM
TGI [3]: 66.9 µM
TGI [4]: > 100 µM
TGI [5]: > 10 µM
TGI [6]: > 100 µM
TGI [7]: > 100 µM
TGI [8]: > 100 µM
TGI [9]: 74.8 µM
TGI [10]: > 100 µM
TGI [11]: 97.1 µM
TGI [12]: > 100 µM
TGI [13]: > 100 µM
TGI [14]: > 100 µM
TGI [15]: > 100 µM
TGI [16]: > 100 µM
TGI [17]: > 100 µM
TGI [18]: > 100 µM
TGI [19]: > 100 µM
TGI [20]: > 100 µM
TGI [21]: 88.6 µM
TGI [22]: > 10 µM
TGI [23]: 34.2 µM
TGI [24]: 56.9 µM
TGI [25]: 60 µM
TGI [26]: 44.3 µM
TGI [27]: 74 µM
TGI [28]: 60.2 µM
TGI [29]: > 100 µM
TGI [30]: > 100 µM
TGI [31]: 72.8 µM
TGI [32]: > 100 µM
TGI [33]: > 100 µM
TGI [34]: > 10 µM
TGI [35]: > 100 µM
TGI [36]: > 100 µM
TGI [37]: > 100 µM
TGI [38]: 40 µM
TGI [39]: 52.8 µM
TGI [40]: > 100 µM
TGI [41]: 68 µM
TGI [42]: 73.9 µM
TGI [43]: > 100 µM
TGI [44]: > 100 µM
TGI [45]: 45.4 µM
TGI [46]: > 10 µM
TGI [47]: > 100 µM
TGI [48]: 43.5 µM
TGI [49]: 45.8 µM
TGI [50]: > 100 µM
TGI [51]: > 10 µM
TGI [52]: 88.6 µM
TGI [53]: 48.1 µM

CCOC(=O)NC(Nc1ncn(C(NC(=O)OCC)(C(F)(F)F)C(F)(F)F)n1)(C(F)(F)F)C(F)(F)F
TGI [1]: > 100 µM
TGI [2]: > 100 µM
TGI [3]: > 100 µM
TGI [4]: > 100 µM
TGI [5]: > 100 µM
TGI [54]: > 100 µM
TGI [6]: > 100 µM
TGI [7]: > 100 µM
TGI [8]: > 100 µM
TGI [55]: > 100 µM
TGI [10]: > 100 µM
TGI [12]: > 100 µM
TGI [13]: > 100 µM
TGI [14]: > 100 µM
TGI [56]: > 100 µM
TGI [16]: > 100 µM
TGI [17]: > 100 µM
TGI [18]: > 100 µM
TGI [19]: > 100 µM
TGI [57]: > 100 µM
TGI [20]: > 100 µM
TGI [21]: > 100 µM
TGI [22]: > 100 µM
TGI [23]: > 100 µM
TGI [24]: > 100 µM
TGI [25]: > 100 µM
TGI [26]: > 100 µM
TGI [27]: > 100 µM
TGI [58]: > 100 µM
TGI [28]: > 100 µM
TGI [29]: > 100 µM
TGI [30]: > 100 µM
TGI [31]: > 100 µM
TGI [32]: > 100 µM
TGI [33]: 30.3 µM
TGI [34]: > 100 µM
TGI [35]: > 100 µM
TGI [36]: > 100 µM
TGI [37]: > 100 µM
TGI [38]: > 100 µM
TGI [39]: > 100 µM
TGI [40]: > 100 µM
TGI [41]: > 100 µM
TGI [42]: > 100 µM
TGI [43]: > 100 µM
TGI [44]: > 100 µM
TGI [45]: > 100 µM
TGI [46]: > 100 µM
TGI [47]: > 100 µM
TGI [48]: > 100 µM
TGI [59]: > 100 µM
TGI [49]: > 100 µM
TGI [50]: > 100 µM
TGI [51]: > 100 µM
TGI [52]: > 100 µM
TGI [53]: > 100 µM

CCCCc1ccc(-n2c(C)c(COC(=O)NC)c(COC(=O)NC)c2C)cc1
TGI [2]: 14.5 µM
TGI [3]: 27.4 µM
TGI [4]: 9.8 µM
TGI [5]: 21.4 µM
TGI [54]: 27 µM
TGI [6]: 15.9 µM
TGI [7]: 19.3 µM
TGI [8]: 18.4 µM
TGI [9]: 9.3 µM
TGI [55]: 18.4 µM
TGI [10]: 26.3 µM
TGI [12]: 24 µM
TGI [13]: 14.1 µM
TGI [14]: 17.8 µM
TGI [56]: 45.9 µM
TGI [17]: 30.4 µM
TGI [18]: 19.6 µM
TGI [19]: 12.4 µM
TGI [57]: 28.1 µM
TGI [20]: 10.5 µM
TGI [21]: 24.5 µM
TGI [22]: 19.6 µM
TGI [23]: 20.9 µM
TGI [24]: 2.85 µM
TGI [25]: 30.7 µM
TGI [26]: 27.8 µM
TGI [27]: 18 µM
TGI [58]: 17.8 µM
TGI [28]: 24.4 µM
TGI [29]: 24.5 µM
TGI [30]: 7.22 µM
TGI [31]: 26.4 µM
TGI [32]: 31.3 µM
TGI [33]: 10.6 µM
TGI [34]: 21.6 µM
TGI [35]: 19.8 µM
TGI [36]: 19.4 µM
TGI [37]: 33.8 µM
TGI [38]: 17.4 µM
TGI [39]: 20.3 µM
TGI [40]: 24.9 µM
TGI [41]: 29.3 µM
TGI [42]: 22 µM
TGI [43]: > 100 µM
TGI [44]: 32 µM
TGI [45]: 16.5 µM
TGI [46]: 16 µM
TGI [47]: 17.1 µM
TGI [48]: 15.9 µM
TGI [59]: 2.6 µM
TGI [50]: 23.5 µM
TGI [51]: 24.4 µM
TGI [52]: 17.2 µM
TGI [53]: 11.5 µM
